Reference: ChEMBL document CHEMBL5620413, “Novel pterostilbene derivatives ameliorate heart failure by reducing oxidative stress and inflammation through regulating Nrf2/NF-κB signaling pathway” (Eur J Med Chem, 2023)
Calls of active or inactive are those of the source.

Key:
RAW264.7 [1] = experiment: Antiinflammatory activity in mouse RAW264.7 cells assessed as decrease in LPS-induced NO production at 10 uM preincubated for 1 hr followed by LPS treatment for 24 hrs by Griess reagent based assay; type: functional, cell-based; conditions: time 25.0 hrs
RAW264.7 [2] = experiment: Antiinflammatory activity in mouse RAW264.7 cells assessed as LPS-induced NO production preincubated for 1 hr followed by LPS treatment for 24 hrs by Griess reagent based assay; type: functional; conditions: time 25 hrs
RAW264.7 [3] = experiment: Antiinflammatory activity in mouse RAW264.7 cells assessed as decrease in LPS-induced iNOS expression preincubated for 1 hr followed by LPS treatment for 24 hrs by Western blot analysis; type: functional, cell-based; conditions: dose <= 10.0 µM, time 25.0 hrs
RAW264.7 [4] = experiment: Inhibition of ROS generation in mouse RAW264.7 cells preincubated for 1 hr followed by LPS treatment for 24 hrs by DCFH-DA dye based analysis; type: functional, cell-based; conditions: dose <= 10.0 µM, time 25.0 hrs
H9c2 [5] = experiment: Inhibition of ROS generation in rat H9c2 cells preincubated for 1 hr followed by LPS treatment for 24 hrs by DCFH-DA dye based analysis; type: functional, cell-based; conditions: dose <= 10.0 µM, time 25.0 hrs
H9c2 [6] = experiment: Inhibition of ROS generation in rat H9c2 cells preincubated for 1 hr followed by DOX treatment for 12 hrs by DCFH-DA dye based analysis; type: functional, cell-based; conditions: dose <= 10.0 µM, time 13.0 hrs
H9c2 [7] = experiment: Inhibition of ROS generation in rat H9c2 cells assessed as increase in LPS-reduced Nrf2 expression upto 10 uM preincubated for 1 hr followed by LPS treatment for 24 hrs by Western blot analysis; type: functional, cell-based; conditions: time 25.0 hrs
RAW264.7 [8] = experiment: Inhibition of ROS generation in mouse RAW264.7 cells assessed as increase in DOX-reduced Nrf2 expression upto 10 uM preincubated for 1 hr followed by DOX treatment for 12 hrs by Western blot analysis; type: functional, cell-based; conditions: time 13.0 hrs
H9c2 [9] = experiment: Inhibition of ROS generation in rat H9c2 cells assessed as increase in DOX-reduced Nrf2 expression upto 10 uM preincubated for 1 hr followed by DOX treatment for 12 hrs by Western blot analysis; type: functional, cell-based; conditions: time 13.0 hrs
RAW264.7 [10] = experiment: Inhibition of ROS generation in mouse RAW264.7 cells assessed as increase in DOX-reduced SOD expression upto 10 uM preincubated for 1 hr followed by DOX treatment for 12 hrs by Western blot analysis; type: functional, cell-based; conditions: time 13.0 hrs
H9c2 [11] = experiment: Inhibition of ROS generation in rat H9c2 cells assessed as increase in DOX-reduced CAT expression upto 10 uM preincubated for 1 hr followed by DOX treatment for 12 hrs by Western blot analysis; type: functional, cell-based; conditions: time 13.0 hrs
RAW264.7 [12] = experiment: Antiinflammatory activity against mouse RAW264.7 cells assessed as decrease in LPS-induced IL-1beta mRNA expression upto 10 uM preincubated for 1 hr followed by LPS treatment for 24 hrs by qRT-PCR analysis; type: functional, cell-based; conditions: time 25.0 hrs
H9c2 [13] = experiment: Antiinflammatory activity against rat H9c2 cells assessed as decrease in DOX-induced IL-1beta expression upto 10 uM preincubated for 1 hr followed by DOX treatment for 12 hrs by Western blot analysis; type: functional, cell-based; conditions: time 13.0 hrs
H9c2 [14] = experiment: Antiinflammatory activity against rat H9c2 cells assessed as decrease in DOX-induced IL-6 expression upto 10 uM preincubated for 1 hr followed by DOX treatment for 12 hrs by Western blot analysis; type: functional, cell-based; conditions: time 13.0 hrs
H9c2 [15] = experiment: Antiinflammatory activity against rat H9c2 cells assessed as decrease in DOX-induced TNF-alpha expression upto 10 uM preincubated for 1 hr followed by DOX treatment for 12 hrs by Western blot analysis; type: functional, cell-based; conditions: time 13.0 hrs
H9c2 [16] = experiment: Antiinflammatory activity against rat H9c2 cells assessed as decrease in LPS-induced NF-kappaB phosphorylation upto 10 uM preincubated for 1 hr followed by LPS treatment for 24 hrs by Western blot analysis; type: functional, cell-based; conditions: time 25.0 hrs
RAW264.7 [17] = experiment: Antiinflammatory activity against mouse RAW264.7 cells assessed as decrease in DOX-induced NF-kappaB phosphorylation upto 10 uM preincubated for 1 hr followed by DOX treatment for 12 hrs by Western blot analysis; type: functional, cell-based; conditions: time 13.0 hrs
H9c2 [18] = experiment: Antiinflammatory activity against rat H9c2 cells assessed as decrease in DOX-induced NF-kappaB phosphorylation upto 10 uM preincubated for 1 hr followed by DOX treatment for 12 hrs by Western blot analysis; type: functional, cell-based; conditions: time 13.0 hrs
Mus musculus [19] = experiment: Protection against cardiac dysfunction C57BL/6J mouse model assessed as increase in DOX-reduced LVFS at 7 mg/kg, ip administered daily for 4 weeks by echocardiography; type: functional, organism-based
Mus musculus [20] = experiment: Protection against cardiac dysfunction C57BL/6J mouse model assessed as increase in DOX-reduced heart size at 7 mg/kg, ip administered daily for 4 weeks; type: functional, organism-based
Mus musculus [21] = experiment: Protection against cardiac dysfunction C57BL/6J mouse model assessed as increase in DOX-reduced ratio of heart weight to body weight at 7 mg/kg, ip administered daily for 4 weeks; type: functional, organism-based
Mus musculus [22] = experiment: Protection against cardiac dysfunction C57BL/6J mouse model assessed as decrease in DOX-induced serum ALP level at 7 mg/kg, ip administered daily for 4 weeks; type: functional, organism-based
Mus musculus [23] = experiment: Protection against cardiac dysfunction C57BL/6J mouse model assessed as decrease in DOX-induced serum ALT level at 7 mg/kg, ip administered daily for 4 weeks; type: functional, organism-based
Mus musculus [24] = experiment: Protection against cardiac dysfunction C57BL/6J mouse model assessed as decrease in DOX-induced serum HBDH level at 7 mg/kg, ip administered daily for 4 weeks; type: functional, organism-based
Mus musculus [25] = experiment: Protection against cardiac dysfunction C57BL/6J mouse model assessed as decrease in DOX-induced myocardial cell injury at 7 mg/kg, ip administered daily for 4 weeks by H and E staining based analysis; type: functional, organism-based
Mus musculus [26] = experiment: Protection against cardiac dysfunction C57BL/6J mouse model assessed as decrease in DOX-induced accumulation of inflammatory cells at 7 mg/kg, ip administered daily for 4 weeks by H and E staining based analysis; type: functional, organism-based
Mus musculus [27] = experiment: Protection against cardiac dysfunction C57BL/6J mouse model assessed as increase in DOX-reduced cardiac SOD2 expression at 7 mg/kg, ip administered daily for 4 weeks by Western blot analysis; type: functional, organism-based
Mus musculus [28] = experiment: Protection against cardiac dysfunction C57BL/6J mouse model assessed as increase in DOX-reduced cardiac NQO1 expression at 7 mg/kg, ip administered daily for 4 weeks by Western blot analysis; type: functional, organism-based
Mus musculus [29] = experiment: Protection against cardiac dysfunction C57BL/6J mouse model assessed as increase in DOX-reduced cardiac GPX1 expression at 7 mg/kg, ip administered daily for 4 weeks by Western blot analysis; type: functional, organism-based
Mus musculus [30] = experiment: Protection against cardiac dysfunction C57BL/6J mouse model assessed as increase in DOX-reduced cardiac Nrf2 expression at 7 mg/kg, ip administered daily for 4 weeks by Western blot analysis; type: functional, organism-based
Mus musculus [31] = experiment: Antiinflammatory activity in cardiac dysfunction C57BL/6J mouse model assessed as decrease in DOX-induced TNF-alpha expression at 7 mg/kg, ip administered daily for 4 weeks by Western blot analysis; type: functional, organism-based
Mus musculus [32] = experiment: Antiinflammatory activity in cardiac dysfunction C57BL/6J mouse model assessed as decrease in DOX-induced IL-6 expression at 7 mg/kg, ip administered daily for 4 weeks by Western blot analysis; type: functional, organism-based
Mus musculus [33] = experiment: Antiinflammatory activity in cardiac dysfunction C57BL/6J mouse model assessed as decrease in DOX-induced IL-1beta expression at 7 mg/kg, ip administered daily for 4 weeks by Western blot analysis; type: functional, organism-based

CCCCOc1ccc(/C=C/c2cc(OC)cc(OC)c2C2CC(C)=NN2C(C)=O)cc1 (stereo not drawn)
active: Activity (RAW264.7 [1]) | Activity (RAW264.7 [3]) Dose-Dependent Effect | inhibition (RAW264.7 [4]) Dose-Dependent Effect | inhibition (H9c2 [5]) Dose-Dependent Effect | inhibition (H9c2 [6]) Dose-Dependent Effect | inhibition (H9c2 [7]) | inhibition (RAW264.7 [8]) | inhibition (H9c2 [9]) | inhibition (RAW264.7 [10]) | inhibition (H9c2 [11]) | Activity (RAW264.7 [12]) | Activity (H9c2 [13]) | Activity (H9c2 [14]) | Activity (H9c2 [15]) | Activity (H9c2 [16]) | Activity (RAW264.7 [17]) | Activity (H9c2 [18]) | Activity (Mus musculus [19]) | Activity (Mus musculus [20]) | Activity (Mus musculus [21]) | Activity (Mus musculus [22]) | Activity (Mus musculus [23]) | Activity (Mus musculus [24]) | Activity (Mus musculus [25]) | Activity (Mus musculus [26]) | Activity (Mus musculus [27]) | Activity (Mus musculus [28]) | Activity (Mus musculus [29]) | Activity (Mus musculus [30]) | Activity (Mus musculus [31]) | Activity (Mus musculus [32]) | Activity (Mus musculus [33])
0.198 µM: Activity (RAW264.7 [2])
